Patent US20230270678A1, “PHARMACEUTICAL COMPOSITIONS FOR IMPROVED DELIVERY OF THERAPEUTIC LIPOPHILIC ACTIVES” (KARNAK TECHNOLOGIES, LLC, priority 2020, published 2023)

System: Pseudomonas aeruginosa
Assay: MIC (minimum inhibition concentration) against P. aeruginosa
Assay type: cell-based
Experimental: Compositions with clarithromycin were prepared by cold physical process. Powder clarithromycin compositions were dissolved in water to obtaining nanoemulsion. The control free clarithromycin was dissolved in 1% DMSO. Emulsion dried using lyophilization. Samples were tested in three independent experiments, with triplicate in each experiment. Particle size was measured using DLS. MIC data (minimum inhibition concentrations) of the formulated and free antibiotic were compared.

Molecule `CC[C@H]1OC(=O)[C@H](C)[C@@H](O[C@H]2C[C@@](C)(OC)[C@@H](O)[C@H](C)O2)[C@H](C)[C@@H](O[C@@H]2O[C@H](C)C[C@H](N(C)C)[C@H]2O)[C@](C)(OC)C[C@@H](C)C(=O)[C@H](C)[C@@H](O)[C@]1(C)O` [Free clarithromycin, clarithromycin] has an MIC of 0.0625%.
